Experimental data from patent US20240245680A1, “Methods of Treating Retinal Vasculopathies” (Unity Biotechnology, Inc., priority 2021, published 2024).

Legend:
[1] = test system: p-eIF2a, ATF4, DDIT3 (CHOP); experiment: Immunoblot of p-eIF2a, ATF4 and DDIT3 in mouse embryonic fibroblasts; type: cell-based; conditions: MEF cells, 250 nM, five hours, immunoblot (FIG. 10B)
Protocol: Next, mouse embryonic fibroblasts (MEF) cells were cultured to near confluency and treated for five hours with a fixed concentration (250 nM) of Compound 39. Cells were harvested in LSD lysis buffer and homogenates were separated by SDS-PAGE. Immunoblotting was performed overnight using antibodies targeting p-eIF2a (Clone D9G8), ATF4 (Clone D4B8), and DNA damage inducible transcript 3 (DDIT3) (Clone 9C8). Compound 39 treatment increases the levels of phospho-eIF2a (p-eIF2a) as well as ATF4 and DDIT3 (CHOP).

[2] = test system: ATF4, p-eIF2a, HIF1α protein in retina; experiment: Retinal immunoblot of ATF4, p-eIF2a and HIF1α after IP dosing, normoxic and OIR retinas; type: in vivo, mouse; conditions: IP 30 mpk, 4 hours after administration, OIR neonates, immunoblot (FIG. 13)
Protocol: Normoxic and OIR eye retinas were dissected 4 hours after Compound 39 administration and the harvested samples were kept on ice and homogenized using Precellys (500 μL tubes) tissue homogenizer in 300 μL LSD Sample/Lysis buffer. Homogenized samples were then centrifuged to separate supernatant from debris. Lysates were separated by SDS-PAGE and immunoblotted for ATF4 (D4B8), p-eIF2a (D9G8), and HIF1α (Novus™, cat. NB100-449) and control protein Actinin (Cell Signaling™, cat. 3134S).

GCN2 = experiment: DDIT3 gene expression (qPCR) in GCN2 knockout, PERK knockout and WT cells; type: cell-based; conditions: GCN2 knockout, 250 nM, five hours, qPCR (FIG. 10D)
Protocol: To determine if DDIT3 activation by Compound 39 is dependent on GCN2 activation, rather than PERK, the following experiment was performed. GCN2 knockout cells (CRL-2978™), PERK knockout cells (CRL-2976™), or WT controls cells (ATCC CRL-2977™) were cultured to near confluency and treated for five hours with a fixed concentration (250 nM) of Compound 39. Following treatment, RNA was extracted using the RNeasy® 96-Kit (Qiagen), and cDNA was next generated using Superscript™ IV VILO™ Master Mix (Thermofisher®). qPCR was performed using standard TaqMan reagents and conditions. DDIT3 gene expression was detected using primer Hs00358796_g1 and Tbp was used as a control gene using primer (Hs99999910_m1).

[3] = test system: ATF4 and DDIT3 gene expression in retina; experiment: Retinal Atf4 and Ddit3 gene expression after IP dosing, normoxic and OIR neonatal mice; type: in vivo, mouse; conditions: IP 10, 30 or 90 mpk at P12, 4 or 24 hours
Protocol: (§1) Compound 39 was tested in an animal model that shares many hallmarks with human ischemic retinopathies, the oxygen-induced retinopathy (OIR) neonatal mouse. To investigate the pharmacodynamic effect of Compound 39, it was intraperitoneally (IP) administered at either 10, 30, or 90 mpk. The dosing formulation was based on a vehicle comprising 1% Pluronic F-68/1% HPMC, 15% captisol. Both normoxic and OIR neonates were treated at P12 (the end of hyperoxia) and taken down after 4 hours, or 24 hours later at P13. Retinas were dissected, and RNA was extracted using a fully automated, spin-column-based nucleic acid extraction instrument (Qiacube Connect™). qPCR was performed using standard TaqMan® reagents and conditions. Atf4, Ddit3, and Tbp (control) gene expression was determined using primers: Mm00515324_m1, Mm00492097_m1, and Mm01277042_m1, respectively.

[4] = test system: Slc7a11 and Serpinf1 gene expression in retina; experiment: Retinal Slc7a11 and Serpinf1 gene expression after IP dosing, normoxic and OIR neonatal mice; type: in vivo, mouse; conditions: IP 10, 30 or 90 mpk at P12, 4 or 24 hours
Protocol: as §1, with “To” for “Compound 39 was tested in an animal model that shares many hallmarks with human ischemic retinopathies, the oxygen-induced retinopathy (OIR) neonatal mouse. To”, “administrated” for “(IP) administered”, “mpk in both normoxic and OIR neonatal mice.” for “mpk.”, “TaqMan” for “TaqMan®”, “Slc7a11, Serpinf1,” for “Atf4, Ddit3,”, “primers Mm00442530_m1, Mm00441270_m1,” for “primers: Mm00515324_m1, Mm00492097_m1,”

DDIT3 expression = experiment: DDIT3 gene expression (qPCR) in HRMEC; type: cell-based, human; conditions: five hours, quarter-log dilutions from 10 μM, qPCR (FIG. 10C)
Protocol: Primary Human Retinal Microvascular Endothelial Cells (HRMEC—Cell Systems™ Corp., ACBRI 181; Lot #181.04.02.02.02) were cultured in Vascular Cell Basal Medium (ATCC® Lot 90909277) with Endothelial Cell Growth Kit-VEGF (ATCC Lot 80720201) with additional FBS added to a final concentration of 5% FBS. Cells were seeded in a 96-well plate at near confluency and treated the next day with Compound 39 for five hours. A dose response was generated using quarter-log dilutions using 10 μM as the starting concentration. Following treatment, RNA was extracted using the RNeasy® 96-Kit (Qiagen®), and cDNA was next generated using Superscript™ IV VILO™ Master Mix (Thermofisher®). qPCR was performed using standard TaqMan® reagents and conditions. DDTI3 gene expression was detected using primer Hs00358796_g1 and Tbp was used as a control gene using primer (Hs99999910_m1). Peak activation of DDIT3 expression was detected at ˜250 nM Compound 39.

cellular ATF4 protein = experiment: ATF4-HiBiT reporter assay in H2122 cells (GCN2 pathway activation); type: cell-based; conditions: five hours, quarter-log dilutions from 10 μM (FIG. 10A)
Protocol: Without any limitations, such assays may be used to test other compounds for GCN2 pathway activation. Activating transcription factor 4 (ATF4) was C-terminally tagged in H2122 cells (CRL-5985™) with a high affinity luciferase complementation fragment (HiBiT) through a knock-in approach using CRISPR-Cas12a technology and a single-stranded oligo DNA nucleotides (ssODNs) template carrying the HiBiT tag. Following reporter cell-line generation (H2122 ATF4-HiBIT) cells were seeded in a 96-well plate at near confluency and treated the next day with Compound 39 for five hours. A dose response was generated using quarter-log dilutions using 10 μM as the starting concentration. The Nano-Glo® HiBiT Lytic Detection (Promega®) reagent was added after five hours and allowed for plate-based bioluminescent quantification of cellular ATF4 protein using an add-mix-read assay format. Peak activation of ATF4 expression was detected at ˜250 nM of Compound 39.

CNc1nc2ccc(-c3c(C)ccc(C(=O)c4c(-c5ccccc5)n(C)n(-c5ccccc5)c4=O)c3N)cc2s1 [Compound 39, 4-(2-Amino-4-methyl-3-(2-(methylamino)benzo[d]thiazol-6-yl)benzoyl)-1-methyl-2,5-diphenyl-1H-pyrazol-3(2H)-one]
levels of ATF4 [1]: increases | levels of DDIT3 (CHOP) [1]: increases | levels of phospho-eIF2a (p-eIF2a) [1]: increases | HIF1α protein levels in retina [2]: downregulated | levels of ATF4 protein in retina [2]: increased | phospho-eIF2α levels in retina [2]: increased | dependence of DDIT3 induction on GCN2 or PERK (GCN2): dependent on GCN2 but not PERK | induction of ATF4 gene expression in retina ([3]; normoxic and OIR neonates (FIG. 11A)): dose-dependent induction | induction of DDIT3 gene expression in retina ([3]; normoxic and OIR neonates (FIG. 11B)): dose-dependent induction | induction of retinal Slc7a11 gene expression ([4]; normoxic and OIR neonatal mice (FIG. 12A)): dose-dependent induction | induction of retinal Serpinf1 gene expression ([4]; normoxic and OIR neonatal mice (FIG. 12B)): dose-dependent induction | concentration of peak activation of DDIT3 expression (DDIT3 expression): ~250 nM | concentration of peak activation of ATF4 expression (cellular ATF4 protein): ~250 nM
